Laboratory results: US20250186396A1, “COMPOSITIONS AND METHODS FOR THE TREATMENT OF GLIOBLASTOMA WITH A DUAL TARGETING ANTI-TUMOR COMPOSITION” (Northwestern University, priority 2023, published 2025)

Key:
[1] = system: CT2A tumors; assay: Immunofluorescence staining of CT2A tumors; format: in vivo, C57BL/6 mice; conditions: for intratumoral CD4+ T cells / intratumoral CD8+ T cells / intratumoral activated CD8+ (CD8+CD69+) T cells: CT2A model, BAPN 2 g/L in drinking water from day 4, SR9009 100 mg/kg i.p. daily for 10 days from day 7; for CX3CR1+ microglia in tumors / F4/80+ macrophages in tumors: CT2A tumors vs control, BAPN 2 g/L drinking water or SR9009 100 mg/kg i.p. daily 10 days
Description: (§1) Mice and Intracranial Xenograft Tumor Models. Female C57BL/6 mice at 3 to 4 weeks of age were purchased from the Jackson Laboratory (#0000664). All animals were grouped by 5 mice per cage and maintained in IVC System (San Diego, CA) for a week before the experiment. All animal experiments were performed with the approval of the Institutional Animal Care and Use Committee (IACUC) at Northwestern University. The intracranial xenograft tumor models were established previously. In brief, mice were anesthetized by isoflurane through IMPAC6 Anesthesia System. Then a dental drill was used to open a small hole in the skull of mice 1.2 mm anterior and 3.0 mm lateral to the bregma. Mice were placed into the stereotactic apparatus, and 5 μL 005 GSC, CT2A, or GL261 cells in FBS-free culture medium were injected into the right caudate nucleus 3 mm below the surface of the brain using a 10 μL Hamilton syringe with an unbeveled 30-gauge needle. The incision was closed using Vetbond glue. Meloxicam (20 mg/kg, daily) was subcutaneously injected for pain relief for 3 days after surgery. Mice received the treatment with BAPN (2 g/L in drinking water) on day 4, SR9009 (100 mg/kg body weight, i.p.) daily for 10 days beginning at day 7 post-orthotopic injection, anti-PD1 (10 mg/kg body weight, i.p.) on days 11, 14, and 17 post-orthotopic injection, and/or clodronate liposomes (200 μL, once every 3 days) starting at day 4 post-orthotopic injection. Mice with neurological deficits or moribund appearance were sacrificed according to the IACUC protocol. At the end of the experiment, the brains of mice were collected, either fixed in 4% paraformaldehyde (PFA) (ThermoFisher Scientific, #J61899.AK) after transcardiac perfusion with PBS for optimal cutting temperature (OCT)-cryosectioning or processed using the percoll density gradient cell separation method to isolate tumor-derived immune cells for flow cytometry analysis.
Immunofluorescence. Immunofluorescence was performed using a standard protocol that was previously established. In brief, slides from cryosections were kept at room temperature for 30 minutes and fixed in 10% PFA for 30 minutes prior to permeabilization. Then, 0.25% Triton X-100 in PBS was added for 30 minutes at room temperature to permeabilize the cell membrane. After three times PBS washing, sections were blocked by 5% goat serum for 30 minutes. Specimens were incubated with primary antibody for 1 hour at room temperature and then overnight at 4° C. Then, the unbound primary antibodies were washed out by three times PBS for 3 minutes each and corresponding secondary antibody cocktails were prepared and added to the sections for 1 hour incubation. Cell nuclear was counterstained with DAPI/anti-fade mounting medium (Vector Laboratories, #H-1200-10). Immunofluorescence images were captured using Nikon AX/AX R Confocal Microscope System with an apo 60 1.40 Oil 160/0.17 objective in the Center for Advanced Microscopy (CAM) at Northwestern University. The relative intensity of the protein signal was determined by Image J. For one slide, 3-5 fields of images were captured randomly, and the intensity of the protein signal was determined by Image J. The average quantified value of these 3-5 fields was represented as the protein signal intensity of one sample and presented as the individual point in the bar graph. Antibodies specific to CD8 (Invitrogen, #PA5-81344), CD69 (Santa Cruz Biotechnology, #sc-373799), CX3CR1 (Invitrogen, #702321), F4/80 (Cell Signaling Technology, #30325S), OLFML3 (Invitrogen, #702321), Ki67 (Cell Signaling Technology, #9129S), and CC3 (Cell Signaling Technology, #9661S) were used.

[2] = system: CT2A tumors; assay: Flow cytometry of tumor-derived immune cells, CT2A tumors; format: in vivo, C57BL/6 mice; conditions: for CD45+CD3+CD8+CD69+ activated T cells / CD45+CD3+CD8+IFN-γ+ activated T cells: CT2A tumors
Description: as §1
Tumor-derived immune cells isolation. Mice with neurologic deficits or moribund appearance were sacrificed to harvest their brains. Immune cells in the brain tumors were isolated using the percoll density gradient cell separation method as previously described. In brief, after perfusion with PBS, brains were homogenized on ice with pre-cold 10 mL HBSS. Then cells were spun down at 1,500 rpm for 10 minutes at 4° C., and were resuspended in 30% Percoll (GE Healthcare, #17-0891-01). The solution was gently laid on top of the 70% Percoll and centrifuged at 1,200 g for 30 minutes at 4° C. with accelerator 7 and breaker 0. After removing myelin and debris, the interphase was collected and centrifuged at 1,500 rpm for 10 minutes at 4° C. The cell pellet was resuspended for further analysis.
Flow cytometry. The single-cell suspensions were incubated with fixable viability dye (Invitrogen, #5211229035) on ice for 10 minutes. After washing with FACS buffer, cells were incubated with the TruStain FcX (anti-mouse CD16/32) Antibody (BioLegend, #103132) and True-Stain Monocyte Blocker (BioLegend, #426102) in 5% BSA for 30 minutes on ice to block Fc receptors and non-specific binding of the cyanine acceptor fluorophores. Different antibody cocktails, including Percp/Cy5.5 anti-mouse CD45 (BioLegend, […]), AF488 anti-mouse CD3 (BioLegend, #100210), BV711 anti-mouse CD8 (BioLegend, #100747), PE/Cy7 anti-mouse CD69 (BioLegend, #104512), APC/Cy7 anti-mouse IFN-γ (BioLegend, #505850), PE/Cy7 anti-mouse/human CD11b (BioLegend, #101216), PE anti-mouse CD68 (BD Bioscience, #566386), and BV421 anti-mouse CX3CR1 (BD Bioscience, #567531) were added to the samples and incubated for 30 minutes on ice. After washing with FACS buffer, cells were incubated with fixation buffer (BioLegend, #420801) overnight. Samples were read through the BD FACSymphony or BD LSRFortessa flow cytometer and analyzed in FlowJo v10.8.1.

[3] = size matched CT2A tumors, BAPN 2 g/L in drinking water

Row | Structure (SMILES) | intratumoral CD4+ T cells [1] | intratumoral CD8+ T cells [1] | intratumoral activated CD8+ (CD8+CD69+) T cells [1] | CX3CR1+ microglia in tumors [1] | F4/80+ macrophages in tumors [1] | CD45+CD3+CD8+CD69+ activated T cells [2] | CD45+CD3+CD8+IFN-γ+ activated T cells [2] | CD45highCD11b+CD68+ macrophages [2, 3] | CD45lowCD11b+CX3CR1+ microglia [2, 3]
1 | N#CCCN [BAPN, β-aminopropionitrile] | increased | increased | increased | higher | lower | Increases | Increases | decreased | increased
2 | CCOC(=O)N1CCC(CN(Cc2ccc(Cl)cc2)Cc2ccc([N+](=O)[O-])s2)C1 (stereo not shown) [SR9009] | increased | increased | increased | reduced | did not affect | Increases | Increases |  | 
